Measurements as given in PMC10447463, “Data-mining unveils structure–property–activity correlation of viral infectivity enhancing self-assembling peptides” (Nature Communications, 2023).
Several values for one entry are separate records, joined by “and”; a condition that tells them apart may be missing. Equal entries are not always repeated. Where two headings read alike, the source gives them in different places.

Assays:
[1] = Turbidity, derived count rate of scattered light; type: physicochemical; conditions: for Zeta Count Rate / kcps: derived count rate of scattered light
How it was run: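 Samples: 1 mg/mL in PBS pH 7.4 (from DMSO), 1 d at RT, then diluted in 1 mM KCl immediately before measurement. Triplicates, two independent runs averaged.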

[2] = Zeta-potential measurement; type: physicochemical; conditions: for Zeta-pot. / mV: zeta potential of peptide, Fig S15 source data
How it was run: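 Peptides from a 10 mg/mL DMSO stock were brought to 1 mg/mL in PBS (pH 7.4) and aged 1 d at RT. Just before reading, they were diluted into 1 mM aqueous KCl, and zeta potential was calculated from electrophoretic mobility with the Smoluchowski formula.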

[3] = β-sheet content by ATR-FT-IR; type: physicochemical; conditions: for FTIR ß-sheet content/ %: ATR-FT-IR
How it was run: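 In the conversion assay, unconverted peptide passing a 3 kDa membrane at 4 °C was labelled with fluorescamine alongside unfiltered PNF, both in DMSO, and read at 365/470 nm after 20 min at room temperature. β-sheet content relied on ATR FT-IR of lyophilized fibril powder.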

[4] = system: HIV-1 infection of TZM-bl cells; assay: HIV-1 infectivity enhancement assay, β-galactosidase luminescence; type: cell-based; conditions: for Log10 of Rel to EFC (Feb2021): Log10 of infectivity relative to EF-C; for infectivity: infectivity class (low / medium / high) of each library peptide, main list in c1-c6, same classes repeated in sub-lists of sequences containing the hydrophobicity/charge patterns P+,H0,P+,H0,P0,H0,P0, P+,H0,P0,H0,P0,H0,P0, P+,H0,P0,H0; for Log10 Inf. rel. to EF-C: log10 of HIV-1 infection of TZM-bl cells relative to EF-C, Fig S15 source data; for Log10 Infection Rel EF-C: HIV-1 infection of TZM-bl cells
[5] = category 1 or 0 from count rate, key not given
[6] = mean, std deviation in next column
[7] = Feb2021, n-fold enhancement relative to EF-C

RGDCKFKFQF [TM64/ CN15]
Zeta Count Rate Category ([1]; category 1 / 0, no key given): 1 | Zeta Count Rate Category [1, 5]: 1 | Zeta Count Rate / kcps [1]: 1338 kcps | Zeta Count Rate / kcps [1, 6]: 1338 kcps | Zeta Pot. / mV [2]: 13.87 mV | Zeta category ( +1 = if > 4 mV;-1 = if < -4 mV; 0 = -4mV to 4 mV) [2]: 1 (+1 = if > 4 mV) | Zeta category ( +1 = if > 4 mV;-1 = if < -4 mV; 0 = -4mV to 4 mV) ([2]; category from zeta potential): 1 (+1 = if > 4 mV) | Zeta Pot. / mV ([2]; mean, Std Zeta in next column): 13.87 mV | Zeta-pot. / mV [2]: 13.87 mV | FTIR ß-sheet content/ % [3]: 47% and 46.68% | Log10 of Rel to EFC (Feb2021) ([4]; Feb2021): -0.8186 | Absolute Infectivity / RLU /s (Feb2021) ([4]; Feb2021, figures match the 1.3 µM column): 4637 RLU /s | n-fold to virus (Feb2021) ([4]; Feb2021, infectivity relative to virus only): 6.381 | Rel-to EFC (Feb-2021) [4, 7]: 0.1519 | Rel-to EFC (Feb-2021) ([4]; Feb2021, n-fold infectivity relative to EF-C): 0.1519 | infectivity [4]: medium | Log10 Inf. rel. to EF-C ([4]; asymmetric std dev errors): -0.8186

RGDKIKIQI
Log10 Count Rate ([1]; Log10 of derived count rate of scattered light (turbidity)): 2.474 | Count Rate / kcps ([1]; derived count rate of scattered light at 633 nm, 173°, from zeta-potential measurement, 0.1 mg/mL in 1 mM KCl after 1 d at 1 mg/mL in PBS, turbidity / microscopic aggregation, mean of triplicate): 298 kcps | Log10 Count Rate ([1]; log10 of derived count rate of scattered light (turbidity)): 2.474 | Log10 Count Rate ([1]; turbidity, Log10 of derived count rate of scattered light, Figure 3A source data): 2.474 | Zeta-Pot. ([2]; zeta potential of peptide assemblies): -0.899 | Zeta-Potential / mV ([2]; zeta-potential of peptide, source data of Figure 2C): 2.829 mV | Zeta-Potential / mV ([2]; zeta-potential of the peptide assemblies, mean, Figure 3A source data): -0.9 mV | b -sheet / % ([3]; Fig. S7 panel A, β-sheet content by ATR-FT-IR): 40.49% | Rel-EFC ([4]; 1.3 µM peptide, infection relative to EF-C (QCKIKQIINMWQ = 1)): 0,02 | Log10 Infection Rel EFC ([4]; 1.3 µM peptide, log10 of infection relative to EF-C): -1,81 | Log Infectivity ([4]; Fig. S7 panel A (plotted against β-sheet content), Log10 infection relative to EF-C, TZM-bl cells, asymmetric std dev errors): -1.805 | Log10 Infection Rel EF-C ([4]; Log10 of infection rate relative to EF-C, Figure 3A source data): -1.81 | Log10 Infection Rel EF-C ([4]; infection rate relative to EF-C, log10, data of Figure 2D): -1.805 | Log10 Infection Rel EF-C ([4]; infection rate relative to EF-C, log10, source data of Figure 2C): -1.805

RGDSKIKIQIC [TM113 / RC11]
Zeta Count Rate Category [1, 5]: 1 | Zeta Count Rate / kcps [1, 6]: 2699 kcps | Zeta category ( +1 = if > 4 mV;-1 = if < -4 mV; 0 = -4mV to 4 mV) ([2]; category from zeta potential): 1 (+1 = if > 4 mV) | Zeta Pot. / mV ([2]; mean, Std Zeta in next column): 15.1 mV | Zeta-pot. / mV [2]: 15.1 mV | FTIR ß-sheet content/ % [3]: 39% | Log10 of Rel to EFC (Feb2021) ([4]; Feb2021): -0.2249 | n-fold to virus (Feb2021) ([4]; Feb2021, infectivity relative to virus only (0 µM)): 25.03 n-fold | Rel-to EFC (Feb-2021) [4, 7]: 0.5957 | infectivity [4]: medium | Log10 Inf. rel. to EF-C ([4]; asymmetric std dev errors): -0.2249
